Values quoted from earlier work as cited in US20260306413A1, “COLONIC PURGATIVE TABLET AND COLONIC PURGATIVE COMPRISING SAME” (PHARMBIO KOREA CO., LTD., priority 2023, published 2026).

| Compound | complications (oral) | colon cleansing effect (compared to PEG) | side effects (frequency vs PEG) |
| --- | --- | --- | --- |
| O=P(O)(O)O [oral sodium phosphate, sodium phosphate] | acute phosphate nephropathy | – | – |
| Phosphate | – | colon cleansing effect in smaller doses compared to PEG | side effects such as abdominal inflation, pain, and dizziness at a similar frequency to PEG |
